Experimental data taken from patent publication US20100292205A1, “Pyrimidone Compounds As GSK-3 Inhibitors” (PFIZER INC., priority 2006, published 2010).

target: T1, Recombinant human GSK3β (Homo sapiens, UniProt P49841); assay: GSK-3β (Glycogen Synthase Kinase) cell free enzyme assay; assay type: biochemical; conditions: 1 μM; GSK-3β cell free enzyme assay; Examples 42-60; read-out: Percent inhibition at 1 μM
T1 construct: His-tag; made in house; host or cells: Sf9 insect cells / baculovirus
Experimental: Assay Protocol for GSK-3β (Glycogen Synthase Kinase) in a Cell Free Enzyme Assay
Recombinant human GSK3β was expressed in SF9/Baculo virus cells. His-tag protein was purified by affinity chromatography to a Ni-NTA Superflow column. Enzyme activity was assayed as the incorporation of [33P] from the gamma phosphate of [33P]ATP (PerkinElmer) into biotinylated peptide substrate bio-LC-S-R-H-S-S-P-H-Q-pS-E-D-E-E-E-OH (Anaspec). Reactions were carried out in a buffer containing 8 mM MOPS (pH 7.0), 10 mM Magnesium Acetate, 0.2 mM EDTA, 1 mM DTT and 2 uM cold ATP. The 33P-ATP was added for 0.025 uCi/well (120 uL) and the final concentration of substrate was 1.0 uM. Enzyme was preincubated with test agent for 30 minutes at room temperature followed by initiation of the reaction by the addition of substrate mix. Incubations were carried out at RT for 60 min. Reactions were stopped by addition of 0.66 volume of buffer containing: 12.5 mM EDTA, 0.25% Triton-X 100, 125 uM ATP, and 6.2 mg/ml streptavidin coated SPA beads (Amersham) in PBS without Ca or Mg. Radioactivity associated with the beads was quantified by scintillation counting of CPM in a Trilux counter (PerkinElmer).
Examples 42 to 60 were prepared using the analogous procedure described to prepare Example 41, substituting the appropriate starting material (Examples 1 to 35) and coupling with the appropriate acid. The assay protocol used is the percent inhibition at 1 μM for GSK-3β in the cell free enzyme assay described above.

T1 sequence (P49841 whole entry): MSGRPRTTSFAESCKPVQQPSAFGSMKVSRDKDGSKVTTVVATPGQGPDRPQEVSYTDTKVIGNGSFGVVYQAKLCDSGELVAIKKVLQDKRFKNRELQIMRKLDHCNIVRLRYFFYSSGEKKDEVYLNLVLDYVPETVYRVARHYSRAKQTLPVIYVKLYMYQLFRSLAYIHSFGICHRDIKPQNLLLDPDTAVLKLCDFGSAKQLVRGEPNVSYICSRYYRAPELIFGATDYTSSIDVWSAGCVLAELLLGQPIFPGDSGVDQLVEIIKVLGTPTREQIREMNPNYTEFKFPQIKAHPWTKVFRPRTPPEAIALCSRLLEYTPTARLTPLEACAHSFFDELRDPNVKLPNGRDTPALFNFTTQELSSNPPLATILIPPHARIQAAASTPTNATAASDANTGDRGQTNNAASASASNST

How did the inhibition at 1 µM turn out when `CC(=O)N1CCCC(Nc2nc(-c3ccncc3)cc(=O)n2C)CC1` (stereo not shown) [Example 43, 2-[(1-Acetylazepan-4-yl)amino]-3-methyl-6-pyridin-4-ylpyrimidin-4(3H)-one] was run?
Its inhibition at 1 µM is 84%.

For `CC(=O)N1[C@@H]2CC[C@H]1CN(c1nc(-c3ccncc3)cc(=O)n1C)C2` [Example 44, 2-[(1R,5S)-3-Acetyl-38-diazabicyclo[3.2.1]oct-8-yl]-3-methyl-6-pyridin-4-ylpyrimidin-4(3H)-one], which inhibition at 1 µM is on record?
The inhibition at 1 µM was 72%.

How did the inhibition at 1 µM turn out when `CC(=O)N1CCC(Nc2nc(-c3ccncc3)cc(=O)n2C)C1` (stereo not shown) [Example 45, 2-[(1-Acetylpyrrolidin-3-yl)amino]-3-methyl-6-pyridin-4-ylpyrimidin-4(3H)-one] was run?
Its inhibition at 1 µM is 39%.

For `CC(=O)N1CCCCC(Nc2nc(-c3ccncc3)cc(=O)n2C)C1` (stereo not shown) [Example 46, 2-[(1-Acetylazepan-3-yl)amino]-3-methyl-6-pyridin-4-ylpyrimidin-4(3H)-one], which inhibition at 1 µM is on record?
Its inhibition at 1 µM is 51%.

With `CC(=O)N1CCC(Nc2nc(-c3ccncc3)cc(=O)n2C)CC1` [Example 47, 2-[(1-Acetylpiperidin-4-yl)amino]-3-methyl-6-pyridin-4-ylpyrimidin-4(3H)-one] as the molecule, how does the inhibition at 1 µM read?
The inhibition at 1 µM was 44%.

With `CC(=O)N1CCCC(Nc2nc(-c3ccncc3)cc(=O)n2C)C1` (stereo not shown) [Example 48, 2-[(1-Acetylpiperidin-3-yl)amino]-3-methyl-6-pyridin-4-ylpyrimidin-4(3H)-one] as the molecule, how does the inhibition at 1 µM read?
The inhibition at 1 µM was 55%.

`CC(=O)N1C[C@@H]2[C@H](C1)[C@H]2Nc1nc(-c2ccncc2)cc(=O)n1C` [Example 49, 2-{[(1R,5S,6s)-3-Acetyl-3-azabicyclo[3.1.0]hex-6-yl]amino}-3-methyl-6-pyridin-4-ylpyrimidin-4(3H)-one] was tested. Which inhibition at 1 µM did it give?
Its inhibition at 1 µM is 75%.

`CC(=O)N1C[C@H](F)[C@H](Nc2nc(-c3ccncc3)cc(=O)n2C)C1` [Example 51, 2-{[(3R,4S)-1-Acetyl-4-fluoropyrrolidin-3-yl]amino}-3-methyl-6-pyridin-4-ylpyrimidin-4(3H)-one] was tested. Which inhibition at 1 µM did it give?
The inhibition at 1 µM was 78%.

How did the inhibition at 1 µM turn out when `CC(=O)N1CCC(N(C)c2nc(-c3ccncc3)cc(=O)n2C)C1` (stereo not shown) [Example 52, 2-[(1-Acetylpyrrolidin-3-yl)(methyl)amino]-3-methyl-6-pyridin-4-ylpyrimidin-4(3H)-one] was run?
The inhibition at 1 µM was 51%.

With `CC(=O)N1CCCC(N(C)c2nc(-c3ccncc3)cc(=O)n2C)CC1` (stereo not shown) [Example 53, 2-[(1-Acetylazepan-4-yl)(methyl)amino]-3-methyl-6-pyridin-4-ylpyrimidin-4(3H)-one] as the molecule, how does the inhibition at 1 µM read?
Its inhibition at 1 µM is 79%.

`CCN(c1nc(-c2ccncc2)cc(=O)n1C)C1CCN(C(C)=O)C1` (stereo not shown) [Example 54, 2-[(1-Acetylpyrrolidin-3-yl)(ethyl)amino]-3-methyl-6-pyridin-4-ylpyrimidin-4(3H)-one] was tested. Which inhibition at 1 µM did it give?
Its inhibition at 1 µM is 64%.

Which inhibition at 1 µM does the source give for `CC(=O)N1CC[C@@]2(C)C[C@H](N(C)c3nc(-c4ccncc4)cc(=O)n3C)CC[C@@H]12` [Example 55, 2-{[(3a,S5,R7,aR)-1-Acetyl-3a-methyloctahydro-1H-indol-5-yl](methyl)amino}-3-methyl-6-pyridin-4-ylpyrimidin-4(3H)-one] here?
The inhibition at 1 µM was 71%.

`CCN(c1nc(-c2ccncc2)cc(=O)n1C)C1CCCN(C(C)=O)CC1` (stereo not shown) [Example 56, 2-[(1-Acetylazepan-4-yl)(ethyl)amino]-3-methyl-6-pyridin-4-ylpyrimidin-4(3H)-one] was tested. Which inhibition at 1 µM did it give?
The inhibition at 1 µM was 85%.

How did the inhibition at 1 µM turn out when `CCN(c1nc(-c2ccncc2)cc(=O)n1C)C1CCN(C(C)=O)CC1` [Example 57, 2-[(1-Acetylpiperidin-4-yl)(ethyl)amino]-3-methyl-6-pyridin-4-ylpyrimidin-4(3H)-one] was run?
The inhibition at 1 µM was 93%.

`CC(=O)N1CCC[C@@H]1CNc1nc(-c2ccncc2)cc(=O)n1C` [Example 58, 2-({[(2R)-1-Acetylpyrrolidin-2-yl]methyl}amino)-3-methyl-6-pyridin-4-ylpyrimidin-4(3H)-one] was tested. Which inhibition at 1 µM did it give?
Its inhibition at 1 µM is 64%.

Which inhibition at 1 µM does the source give for `CC(=O)N1CCC(CNc2nc(-c3ccncc3)cc(=O)n2C)C1` (stereo not shown) [Example 59, 2-{[(1-Acetylpyrrolidin-3-yl)methyl]amino}-3-methyl-6-pyridin-4-ylpyrimidin-4(3H)-one] here?
The inhibition at 1 µM was 37%.

How did the inhibition at 1 µM turn out when `CC(=O)N[C@@H]1CC[C@@H](Nc2nc(-c3ccncc3)cc(=O)n2C)C1` [Example 60, N-{(1R,3R)-3-[(1-Methyl-6-oxo-4-pyridin-4-yl-16-dihydropyrimidin-2-yl)amino]cyclopentyl} acetamide] was run?
Its inhibition at 1 µM is 77%.

same assay, conditions: cell free enzyme assay; Examples 1-35

`Cn1c(NCCn2c(=O)ccc3ccccc32)nc(-c2ccncc2)cc1=O` [Example 30, 1-{2-[(1-Methyl-6-oxo-4-pyridin-4-yl-1,6-dihydropyrimidin-2-yl)amino]ethyl} quinolin-2(1H)-one] was tested. Which IC50 did it give?
Its IC50 is 0.025 µM.

With `CN(c1nc(-c2ccncc2)cc(=O)n1C)[C@@H]1CC[C@H]2N(C(=O)OC(C)(C)C)CC[C@@]2(C)C1` [Example 31, tert-butyl (3aS,5R,7aR)-3a-Methyl-5-[methyl(1-methyl-6-oxo-4-pyridin-4-yl-1,6-dihydropyrimidin-2-yl)amino]octahydro-1H-indole-1-carboxylate] as the molecule, how does the IC50 read?
The IC50 was 0.0301 µM.

With `Cn1c(NC[C@H]2CCCN2C(=O)OC(C)(C)C)nc(-c2ccncc2)cc1=O` [Example 32, tert-butyl (2R)-2-{[(1-Methyl-6-oxo-4-pyridin-4-yl-1,6-dihydropyrimidin-2-yl)amino]methyl} pyrrolidine-1-carboxylate] as the molecule, how does the IC50 read?
Its IC50 is 0.071 µM.

Which IC50 does the source give for `Cn1c(N[C@@H]2CN(C(=O)OC(C)(C)C)C[C@@H]2F)nc(-c2ccncc2)cc1=O` [Example 33, tert-butyl (3S,4R)-3-Fluoro-4-[(1-methyl-6-oxo-4-pyridin-4-yl-1,6-dihydropyrimidin-2-yl)amino]pyrrolidine-1-carboxylate] here?
The IC50 was 0.077 µM.

With `Cn1c(NCC2CCN(C(=O)OC(C)(C)C)C2)nc(-c2ccncc2)cc1=O` (stereo not shown) [Example 34, tert-butyl 3-{[(1-Methyl-6-oxo-4-pyridin-4-yl-1,6-dihydropyrimidin-2-yl)amino]methyl} pyrrolidine-1-carboxylate] as the molecule, how does the IC50 read?
The IC50 was 0.113 µM.

For `Cn1c(NCC2CCCCN2C(=O)OC(C)(C)C)nc(-c2ccncc2)cc1=O` (stereo not shown) [Example 35, tert-butyl 2-{[(1-Methyl-6-oxo-4-pyridin-4-yl-1,6-dihydropyrimidin-2-yl)amino]methyl} piperidine-1-carboxylate], which IC50 is on record?
Its IC50 is 0.168 µM.

same assay, conditions: cell free enzyme assay; Examples 62-155

Which IC50 does the source give for `Cn1c(NC2CCN(C(=O)c3ccccc3)C2)nc(-c2ccncc2)cc1=O` (stereo not shown) [Example 62, 2-[(1-Benzoylpyrrolidin-3-yl)amino]-3-methyl-6-pyridin-4-ylpyrimidin-4(3H)-one] here?
The IC50 was 0.0775 µM.

With `Cn1c(NC2CCCN(C(=O)c3ccccc3)CC2)nc(-c2ccncc2)cc1=O` (stereo not shown) [Example 63, 2-[(1-Benzoylazepan-4-yl)amino]-3-methyl-6-pyridin-4-ylpyrimidin-4(3H)-one] as the molecule, how does the IC50 read?
The IC50 was 0.0124 µM.

`Cn1c(NC2CN(C(=O)c3ccccc3)C2)nc(-c2ccncc2)cc1=O` [Example 64, 2-[(1-Benzoylazetidin-3-yl)amino]-3-methyl-6-pyridin-4-ylpyrimidin-4(3H)-one] was tested. Which IC50 did it give?
The IC50 was 0.367 µM.

`Cn1c(NC2CCN(C(=O)c3ccccc3)CC2)nc(-c2ccncc2)cc1=O` [Example 65, 2-[(1-Benzoylpiperidin-4-yl)amino]-3-methyl-6-pyridin-4-ylpyrimidin-4(3H)-one] was tested. Which IC50 did it give?
The IC50 was 0.202 µM.

How did the IC50 turn out when `Cn1c(NC2CCCN(C(=O)c3ccccc3)C2)nc(-c2ccncc2)cc1=O` (stereo not shown) [Example 66, 2-[(1-Benzoylpiperidin-3-yl)amino]-3-methyl-6-pyridin-4-ylpyrimidin-4(3H)-one] was run?
The IC50 was 1 µM.
